Experimental data as given in PMC8274934, “FisB relies on homo-oligomerization and lipid binding to catalyze membrane fission in bacteria” (PLoS Biology, 2021).
Changes are numbered by the printed parent chain.

What was measured:
iFluor555-FisB ECD [1] = target: T1, iFluor555-FisB ECD (Bacillus subtilis, UniProt O32131, G123C); experiment: liposome co-flotation, fluorescence of gel band; type: binding; conditions: apparent, in total lipid concentration, 55% PC, 100 nM labelled protein, room temperature, 1 h
T1 construct: iFluor555-maleimide on G123C; forms soluble oligomers
T1 sequence (O32131 39-254 G123C limits assumed): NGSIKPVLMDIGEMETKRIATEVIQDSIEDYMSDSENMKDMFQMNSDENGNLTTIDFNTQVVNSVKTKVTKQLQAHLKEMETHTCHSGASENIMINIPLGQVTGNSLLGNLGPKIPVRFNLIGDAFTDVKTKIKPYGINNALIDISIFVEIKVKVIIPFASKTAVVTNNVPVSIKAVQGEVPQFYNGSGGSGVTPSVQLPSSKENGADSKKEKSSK

iFluor555-FisB ECD [2] = target: T2, iFluor555-FisB ECD (Bacillus subtilis, UniProt O32131, G123C/K168D/K170E); experiment: liposome co-flotation, fluorescence of gel band; type: binding; conditions: apparent; in total lipid concentration; liposomes 45 mole % CL, 55% PC; 100 nM labelled protein; room temperature, 1 h; read-out: KdKK
T2 construct: iFluor555-maleimide on G123C; forms soluble oligomers
T2 sequence (O32131 39-254 G123C/K168D/K170E limits assumed): T1 sequence (O32131 39-254 G123C limits assumed) with K130D, K132E

[3] = target: His6-FisB ECD (recombinant soluble extracytoplasmic domain of fission protein B, wild type) (B. subtilis); experiment: negative-stain electron microscopy; high molecular weight SEC fractions on carbon-coated grids, 2% uranyl acetate

## cardiolipin [CL]
iFluor555-FisB ECD [1]; liposomes 45 mole % CL
  Kd: 1 µM
iFluor555-FisB ECD [2]
  Kd: 9.1 µM

## phosphatidylglycerol [PG]
iFluor555-FisB ECD [1]; liposomes 45 mole % PG
  Kd: 3.6 µM

## His6-FisB ECD (recombinant soluble extracytoplasmic domain of fission protein B, wild type) (domain or fragment)
[3]
  stoichiometry N: 40 copies
